{"source": "patent US20230364121A1", "about": "(priority 2020, published 2023)", "key": {"[1]": {"target": "T1, SARS-Cov-1 nsp12:7L8:8 polymerase complex (Severe acute respiratory syndrome coronavirus, UniProt P0C6X7)", "type": "biochemical"}, "[2]": {"test_system": "SARS-CoV and SARS-CoV-2 RTCs", "type": "biochemical"}, "nsp12:7:8 RTC": {"target": "nsp12:7:8 RTC (Severe acute respiratory syndrome coronavirus, UniProt P0C6X7)", "type": "biochemical, SARS-CoV"}, "nsp12 NiRAN active-site": {"target": "nsp12 NiRAN active-site (Severe acute respiratory syndrome coronavirus, UniProt P0C6X7)", "test": "biochemical", "type": "biochemical, SARS-CoV"}, "[3]": {"test_system": "mock infected MES-1 cells", "test": "Cytotoxicity in mock infected MES-1 cells (MTT)", "type": "cell-based", "settings": "Table 3B, 3 days", "method": "(§1) To determine the cytotoxicity, cells were seeded at an initial density of 1×10^6 cells/mL in 96 well plates containing Minimum Essential Medium with Earles's salts (MEM-E), L-glutamine, 1 mM sodium pyruvate and 25 mg/L kanamycin, supplemented with 10% fetal bovine serum. Cell cultures were then incubated at 37° C. in a humidified 5% CO2 atmosphere in the absence or presence of serial dilutions of test compounds. Cell viability was determined by the MTT method."}, "HCoV [4]": {"test_system": "HCoV", "test": "microbe, parasite or virus in culture", "type": "cell-based, human coronavirus"}, "[5]": {"test": "Cytotoxicity in mock infected MES-1 cells (MTT)", "type": "cell-based", "settings": "mock infected MES-1 cells, Table 3A", "method": "as §1"}, "HCoV-229E": {"test_system": "HCoV-229E", "test": "Virus-induced CPE assay, HCoV-229E in BHK-21 cells (MTT)", "type": "cell-based", "settings": "Human coronavirus 229E, BHK-21, 72 h, BHK-21; dye staining; 3-day incubation; read-out: EC50", "method": "In an initial screening, BHK-21 cells acutely infected with a seasonal human alpha coronavirus, HCoV-229E, were exposed to serial dilutions of Compound 1A.\nBHK-21 cells: Test compounds were dissolved in DMSO at 100 mM and then diluted in Minimum Essential Medium with Earle's salts (MEM-E) containing 1 mM sodium pyruvate and 25 μg/mL kanamycin, supplemented with 10% FBS (growth medium) to final concentrations of 100, 20, 4 and 0.8 μM (two […] replica plates each). After BHK-21 cells were grown to confluency in 96-well plates, growth medium was replaced with fresh maintenance medium (growth medium with 1% inactivated FBS in place of 10% FBS) containing serially diluted test compound and HCoV-229E at a multiplicity of infection (MOI) of 0.01. Uninfected cells in the presence of serially diluted compound were used to assess the cytotoxicity of compounds. After a 3-day incubation at 37° C. in a humidified 5% CO2 atmosphere, cell viability was determined by the MTT method (Pauwels, R et al. J. Virol. Methods 20(4):309-321 (1988))."}, "[6]": {"test": "Cytotoxicity in mock infected BHK cells (MTT)", "type": "cell-based, hamster", "settings": "hamster", "method": "as §1\n(§2) Uninfected cells in the presence of serially diluted compound were used to assess the cytotoxicity of compounds."}, "[7]": {"target": "T1, SARS-Cov-1 nsp12:7L8:8 polymerase complex", "test": "biochemical", "type": "biochemical"}, "[8]": {"test_system": "human coronavirus alpha-229E", "test": "microbe, parasite or virus in culture", "type": "cell-based, HCoV-229E", "settings": "for EC90: read-out: Virus Yield Reduction Assay EC90; for EC50: Huh-7, 120 h, read-out: Neutral Red Assay EC50"}, "Huh7 cells": {"test_system": "Huh7 cells", "settings": "human"}, "HCoV [9]": {"test_system": "HCoV", "test": "microbe, parasite or virus in culture", "type": "cell-based, human coronavirus", "remark": "listed apart in the source"}, "mock infected BHK cells": {"test_system": "mock infected BHK cells", "test": "Cytotoxicity in mock infected BHK cells (MTT)", "type": "cell-based, hamster", "settings": "Table 2B; MTT, 3 days", "method": "as §1, §2"}, "[10]": {"settings": "unidentified human coronavirus, Huh-7, 72 h"}, "[11]": {"settings": "unidentified human coronavirus, BHK-21, 72 h"}, "[12]": {"settings": "mock infected BHK cells, Table 2A, MTT, 3 days"}}, "note": "Like-named read-outs stand apart in the source and are kept apart here."}
{"smiles": "C[C@@]1(F)[C@H](O)[C@@H](COP(=O)(O)OP(=O)(O)OP(=O)(O)O)O[C@H]1n1ccc(=O)[nH]c1=O", "note": "[STP, 5′-triphosphate 2′-fluoro-2′-C-methyl uridine]", "values": [{"measurement": "discrimination as substrate of the SARS-CoV RDRP", "setting": "[1]", "value": "> 250", "unit": "fold"}, {"measurement": "competition with UTP", "setting": "[2]; 5-fold higher concentrations than UTP", "value": "not competitive"}, {"measurement": "competition with UTP", "setting": "[2]; STP: UTP 20:1", "value": "not competitive"}, {"measurement": "inhibition of RNA synthesis from poly(C) template", "setting": "nsp12:7:8 RTC", "value": "virtually inactive"}, {"measurement": "fold less efficient at blocking nsp8 labeling / UMPylation than AT-9010", "setting": "nsp12 NiRAN active-site", "value": "~5", "unit": "fold"}, {"measurement": "IC50", "setting": "nsp12 NiRAN active-site; IC50 of nsp8 labeling against GTP (FIG. 13C)", "value": "5 ± 0.8", "unit": "µM"}, {"measurement": "IC50", "setting": "nsp12 NiRAN active-site; IC50 of nsp8 labeling against UTP (FIG. 13C)", "value": "8.2 ± 1.4", "unit": "µM"}, {"measurement": "IC50", "setting": "nsp12 NiRAN active-site; IC50 of nsp8 labeling, competition with UTP (FIG. 13A)", "value": "4.6 ± 0.2", "unit": "µM"}]}
{"smiles": "CNc1nc(N)nc2c1ncn2[C@@H]1O[C@H](CO[P@](=O)(N[C@@H](C)C(=O)OC(C)C)Oc2ccccc2)[C@@H](O)[C@@]1(C)F", "note": "[drawing 254]", "values": [{"measurement": "CC50", "setting": "[3]", "value": "> 100", "unit": "µM"}, {"measurement": "EC50", "setting": "HCoV [4]", "value": 2.2, "unit": "µM"}]}
{"smiles": "CC(C)OC(=O)[C@H](C)N[P@](=O)(OCC1O[C@@H](n2ccc(=O)[nH]c2=O)[C@](C)(F)[C@@H]1O)Oc1ccccc1", "note": "(stereo partly shown) [drawing 255]", "values": [{"measurement": "CC50", "setting": "[3]", "value": "> 100", "unit": "µM"}, {"measurement": "EC50", "setting": "HCoV [4]", "value": "> 100", "unit": "µM"}]}
{"smiles": "CCC(CC)COC(=O)[C@H](C)N[P@](=O)(OC[C@H]1O[C@@](C#N)(c2ccc3c(N)ncnn23)[C@H](O)[C@@H]1O)Oc1ccccc1", "note": "[drawing 258]", "values": [{"measurement": "CC50", "setting": "[3]", "value": "> 100", "unit": "µM"}, {"measurement": "EC50", "setting": "HCoV [4]", "value": 5.5, "unit": "µM"}]}
{"smiles": "CC(C)(CO)C(=O)SCCOP(=O)(NCc1ccccc1)OC[C@H]1O[C@@H](n2cnc3c(=O)[nH]c(N)nc32)[C@](C)(O)[C@@H]1O", "note": "(stereo partly shown) [drawing 250]", "values": [{"measurement": "CC50 at 3 days", "setting": "[5]", "value": 82, "unit": "µM"}, {"measurement": "EC50", "setting": "HCoV [4]; unidentified human coronavirus, 72 h", "value": 1.9, "unit": "µM"}]}
{"smiles": "CC(C)OC(=O)[C@H](C)N[P@](=O)(OC[C@H]1O[C@@H](n2ccc(=O)[nH]c2=O)[C@](C)(F)[C@@H]1O)Oc1ccccc1", "note": "[sofosbuvir, reference compound]", "values": [{"measurement": "EC50", "setting": "HCoV-229E", "value": "> 100", "unit": "µM"}, {"measurement": "fold less efficient at blocking nsp8 labeling / UMPylation than AT-9010", "setting": "nsp12 NiRAN active-site", "value": "about 5 fold"}, {"measurement": "CC50 at 3 days", "setting": "[6]; uninfected BHK-21 cells, BHK-21, Table 5", "value": "> 100", "unit": "µM"}]}
{"smiles": "Cn1c[n+]([C@@H]2O[C@H](COP(=O)([O-])OP(=O)(O)OP(=O)(O)O)[C@@H](O)[C@H]2O)c2nc(N)[nH]c(=O)c21", "note": "[^m7GTP]", "values": [{"measurement": "inhibition of nsp8 labeling / transfer of UTP to nsp8", "setting": "nsp12 NiRAN active-site", "value": "poorly inhibit"}]}
{"smiles": "C[C@@]1(F)[C@H](O)[C@@H](COP(=O)(O)OP(=O)(O)OP(=O)(O)O)O[C@H]1n1ccc(=O)[nH]c1=O", "note": "[2′C-Me 2′F-UTP, reference compound]", "values": [{"measurement": "incorporation efficacy compared to misincorporation at a U position", "setting": "[1]", "value": "around 40%"}, {"measurement": "EC50", "setting": "[7]", "value": "20 to 40", "unit": "µM"}]}
{"smiles": "CC(C)[C@H](N)C(=O)O[C@@H]1[C@@H](CO)O[C@@H](n2ccc(N)nc2=O)[C@]1(C)O", "note": "[drawing 259]", "values": [{"measurement": "CC50", "setting": "[3]", "value": "> 100", "unit": "µM"}]}
{"smiles": "CCN(CCO)CCCC(C)Nc1ccnc2cc(Cl)ccc12", "note": "(stereo not shown) [hydroxychloroquine, reference compound]", "values": [{"measurement": "EC90", "setting": "[8]", "value": "< 0.048", "unit": "µM"}, {"measurement": "EC90", "setting": "[8]; [10]", "value": "< 0.05", "unit": "µM"}, {"measurement": "EC50", "setting": "[8]; unidentified human coronavirus", "value": 7.4, "unit": "µM"}, {"measurement": "CC50", "setting": "Huh7 cells", "value": 26, "unit": "µM"}]}
{"smiles": "CNc1nc(N)nc2c1ncn2[C@@H]1O[C@H](CO[P@@](=O)(N[C@@H](C)C(=O)OC(C)C)Oc2ccccc2)[C@@H](O)[C@@]1(C)F", "note": "[drawing 232]", "values": [{"measurement": "EC50", "setting": "HCoV [9]; [11]", "value": 1.6, "unit": "µM"}, {"measurement": "CC50 at 3 days", "setting": "[6]; [12]", "value": "> 100", "unit": "µM"}]}
{"smiles": "CCN(CC)CCCC(C)Nc1ccnc2cc(Cl)ccc12", "note": "(stereo not shown) [chloroquine, reference compound]", "values": [{"measurement": "EC90", "setting": "[8]; [10]", "value": "< 0.05", "unit": "µM"}, {"measurement": "EC50", "setting": "[8]; unidentified human coronavirus", "value": 8.1, "unit": "µM"}, {"measurement": "CC50", "setting": "Huh7 cells", "value": 21, "unit": "µM"}]}
{"smiles": "CNc1nc(N)nc2c1ncn2[C@@H]1O[C@H](CO[P@](=O)(N[C@@H](C)C(=O)OC(C)C)Oc2ccccc2)[C@@H](O)[C@@]1(C)F", "note": "[drawing 233]", "values": [{"measurement": "EC50", "setting": "HCoV [9]; [11]", "value": 2.5, "unit": "µM"}, {"measurement": "CC50 at 3 days", "setting": "[6]; [12]", "value": "> 100", "unit": "µM"}]}
{"smiles": "CC(C)(CO)C(=O)SCCOP(=O)(NCc1ccccc1)OC[C@H]1O[C@@H](n2cnc3c(=O)[nH]c(N)nc32)[C@](C)(O)[C@@H]1O", "note": "(stereo partly shown) [drawing 236]", "values": [{"measurement": "EC50", "setting": "HCoV [9]; [11]", "value": 1.7, "unit": "µM"}, {"measurement": "CC50 at 3 days", "setting": "[6]; [12]", "value": 65, "unit": "µM"}]}
{"smiles": "CCC(CC)COC(=O)[C@H](C)N[P@](=O)(OC[C@H]1O[C@@](C#N)(c2ccc3c(N)ncnn23)[C@H](O)[C@@H]1O)Oc1ccccc1", "note": "[drawing 237]", "values": [{"measurement": "EC50", "setting": "HCoV [9]; [11]", "value": 7.2, "unit": "µM"}, {"measurement": "CC50 at 3 days", "setting": "[6]; [12]", "value": "> 100", "unit": "µM"}]}
{"smiles": "CC(C)OC(=O)[C@H](C)N[P@](=O)(OCC1O[C@@H](n2ccc(=O)[nH]c2=O)[C@](C)(F)[C@@H]1O)Oc1ccccc1", "note": "(stereo partly shown) [drawing 241]", "values": [{"measurement": "EC50", "setting": "HCoV [9]", "value": "> 100", "unit": "µM"}, {"measurement": "CC50", "setting": "mock infected BHK cells", "value": "> 100", "unit": "µM"}]}
